The values below come from BindingDB's records for doi:10.3109/14756366.2013.827678 (Qingdao University, 2014).

Where “and” joins values, the source holds several entries; their conditions need not be identical. Identical values can stand only once.

As usually defined, the IC50 is the concentration that gives 50% inhibition. Higher therefore signals a need for much substance.

The target of the test is T1, Histone deacetylase 8 (Homo sapiens, UniProt Q9BY41).
T1 sequence (Q9BY41 whole entry): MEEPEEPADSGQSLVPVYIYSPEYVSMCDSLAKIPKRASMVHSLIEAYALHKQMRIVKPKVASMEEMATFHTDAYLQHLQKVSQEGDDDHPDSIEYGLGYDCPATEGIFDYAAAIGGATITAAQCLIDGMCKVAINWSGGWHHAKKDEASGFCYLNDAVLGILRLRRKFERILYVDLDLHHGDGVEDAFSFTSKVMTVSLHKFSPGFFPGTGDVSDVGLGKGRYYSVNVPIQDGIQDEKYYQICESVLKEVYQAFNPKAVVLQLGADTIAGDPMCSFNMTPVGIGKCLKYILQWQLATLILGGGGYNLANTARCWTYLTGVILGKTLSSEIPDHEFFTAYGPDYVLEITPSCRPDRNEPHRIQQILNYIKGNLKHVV
The experiment in a line: Enzyme inhibition assay. How it is done: The nucleus extract […] HDAC8 enzyme was expressed in Escherichia coli. Boc-Lys (acetyl)-AMC was used as the substrate of HDAC. SAHA which is the HDAC inhibitor on market was used as a positive control. The compounds were diluted to six concentrations (25, 5, 1, 0.2, 0.04 and 0.008 uM/L) to investigate their ability of inhibiting HDAC activity.
`O=C(CCCCCNC(=O)c1ccc(NC(=O)N[C@H](C(=O)Nc2ccc(Cl)cc2Cl)c2ccccc2)cc1)NO` [(S)-4-(3-(2-((2,4-dichlorophenyl)amino)-2-oxo-1-phenylethyl)ureido)-N-(6-(hydroxyamino)-6-oxohexyl)benzamide (L19)] had an IC50 of 1570 nM.
The figure for `CC(C)c1cccc(C(C)C)c1NC(=O)[C@@H](NC(=O)Nc1ccc(C(=O)NCCCCCC(=O)NO)cc1)c1ccccc1` [(S)-4-(3-(2-((2,6-diisopropylphenyl)amino)-2-oxo-1-phenylethyl)ureido)-N-(6-(hydroxyamino)-6-oxohexyl)benzamide (L17)] is 1790 nM; for `O=C(CCCCCNC(=O)c1ccc(NC(=O)N[C@H](C(=O)Nc2ccccc2F)c2ccccc2)cc1)NO` [(S)-4-(3-(2-((2-fluorophenyl)amino)-2-oxo-1-phenylethyl)ureido)-N-(6-(hydroxyamino)-6-oxohexyl)benzamide (L2)] it is 1320 nM; for `Cc1cc(C)cc(NC(=O)[C@@H](NC(=O)Nc2ccc(C(=O)NCCCCCC(=O)NO)cc2)c2ccccc2)c1` [(S)-4-(3-(2-((3,5-dimethylphenyl)amino)-2-oxo-1-phenylethyl)ureido)-N-(6-(hydroxyamino)-6-oxohexyl)benzamide (L13)] it is 1660 nM.
Under `O=C(CCCCCNC(=O)c1ccc(NC(=O)N[C@H](C(=O)Nc2cccc(Cl)c2)c2ccccc2)cc1)NO` [(S)-4-(3-(2-((3-chlorophenyl)amino)-2-oxo-1-phenylethyl)ureido)-N-(6-(hydroxyamino)-6-oxohexyl)benzamide (L12)] stands 1280 nM; under `CC(C)(C)c1ccc(NC(=O)[C@@H](NC(=O)Nc2ccc(C(=O)NCCCCCC(=O)NO)cc2)c2ccccc2)cc1` [(S)-4-(3-(2-((4-(tert-butyl)phenyl)amino)-2-oxo-1-phenylethyl)ureido)-N-(6-(hydroxyamino)-6-oxohexyl)benzamide (L4)], 2340 nM.
The figure for `O=C(CCCCCNC(=O)c1ccc(NC(=O)N[C@H](C(=O)NCc2ccc(F)cc2)c2ccccc2)cc1)NO` [(S)-4-(3-(2-((4-fluorobenzyl)amino)-2-oxo-1-phenylethyl)ureido)-N-(6-(hydroxyamino)-6-oxohexyl)benzamide (L15)] is 1070 nM and 1210 nM.
`O=C(CCCCCNC(=O)c1ccc(NC(=O)N[C@H](C(=O)Nc2ccc(F)cc2)c2ccccc2)cc1)NO` [(S)-4-(3-(2-((4-fluorophenyl)amino)-2-oxo-1-phenylethyl)ureido)-N-(6-(hydroxyamino)-6-oxohexyl)benzamide (L3)] returned an IC50 of 1770 nM.
The figure for `O=C(CCCCCNC(=O)c1ccc(NC(=O)N[C@H](C(=O)NCc2ccccc2)c2ccccc2)cc1)NO` [(S)-4-(3-(2-(benzylamino)-2-oxo-1-phenylethyl)ureido)-N-(6-(hydroxyamino)-6-oxohexyl)benzamide (L1)] is 1510 nM; for `O=C(CCCCCNC(=O)c1ccc(NC(=O)N[C@H](C(=O)Nc2ccco2)c2ccccc2)cc1)NO` [(S)-4-(3-(2-(furan-2-ylamino)-2-oxo-1-phenylethyl)ureido)-N-(6-(hydroxyamino)-6-oxohexyl)benzamide (L5)] it is 1460 nM; for `O=C(CCCCCNC(=O)c1ccc(NC(=O)N[C@H](C(=O)Nc2ccccc2O)c2ccccc2)cc1)NO` [(S)-N-(6-(hydroxyamino)-6-oxohexyl)-4-(3-(2-((2-hydroxyphenyl)amino)-2-oxo-1-phenylethyl)ureido)benzamide (L11)] it is 1300 nM.
The figure for `COc1ccccc1NC(=O)[C@@H](NC(=O)Nc1ccc(C(=O)NCCCCCC(=O)NO)cc1)c1ccccc1` [(S)-N-(6-(hydroxyamino)-6-oxohexyl)-4-(3-(2-((2-methoxyphenyl)amino)-2-oxo-1-phenylethyl)ureido)benzamide (L10)] is 1770 nM; for `O=C(CCCCCNC(=O)c1ccc(NC(=O)N[C@H](C(=O)Nc2cccc(C(F)(F)F)c2)c2ccccc2)cc1)NO` [(S)-N-(6-(hydroxyamino)-6-oxohexyl)-4-(3-(2-oxo-1-phenyl-2-((3-(trifluoromethyl)phenyl)amino)ethyl)ureido)benzamide (L8)] it is 967 nM; for `Cc1cccc(NC(=O)[C@@H](NC(=O)Nc2ccc(C(=O)NCCCCCC(=O)NO)cc2)c2ccccc2)c1` [(S)-N-(6-(hydroxyamino)-6-oxohexyl)-4-(3-(2-oxo-1-phenyl-2-(m-tolylamino)ethyl)ureido)benzamide (L18)] it is 1320 nM.
`Cc1ccccc1NC(=O)[C@@H](NC(=O)Nc1ccc(C(=O)NCCCCCC(=O)NO)cc1)c1ccccc1` [(S)-N-(6-(hydroxyamino)-6-oxohexyl)-4-(3-(2-oxo-1-phenyl-2-(o-tolylamino)ethyl)ureido)benzamide (L6)] displayed a concentration for half-maximal inhibition (IC50) of 1340 nM.
The figure for `Cc1ccc(NC(=O)[C@@H](NC(=O)Nc2ccc(C(=O)NCCCCCC(=O)NO)cc2)c2ccccc2)cc1` [(S)-N-(6-(hydroxyamino)-6-oxohexyl)-4-(3-(2-oxo-1-phenyl-2-(p-tolylamino)ethyl)ureido)benzamide (L9)] is 1870 nM; for `CC(C)(C)OC(=O)NC(C(=O)Nc1ccc(C(=O)NO)cc1)c1ccccc1` (configuration not stated) [phenylglycine containing lead compound (4h)] it is 1520 nM.
